What follows are molecules tested on nasal cavity (assay: Sensory test (1): odor and irritation evoked by nasal spraying). Conditions: 0.6 w/v % aqueous solution sprayed into the nasal cavity; four healthy normal adult males.
Protocol: As the control, physiological saline was used.
Then, aqueous solutions of various organic acids were prepared, in order to identify the factors responsible for the odor and irritation the preparation evokes when it is applied in the nasal cavity. The organic acid employed included acetic acid, citric acid and tartaric acid; oxalic acid; malic acid; phthalic acid; ascorbic acid; adipic acid; and glycolic acid.
Prepared were 0.1 v/v %, 0.2 v/v %, 0.3 v/v % and 0.6 v/v % aqueous solutions of acetic acid, and 0.6 w/v % aqueous solutions of citric acid, tartaric acid, oxalic acid, malic acid, phthalic acid, ascorbic acid, adipic acid, and glycolic acid. The solution was sprayed into the nasal cavity; and the odor and irritation were assessed in the same manner as above (testers consisting of four healthy normal adult males).
In the same manner as above, the test solution was applied in the nasal cavity, and the odor and irritation evoked thereby were assessed (testers consisting of 12 healthy normal adult males).

SMILES | Irritability
O=C1O[C@H]([C@@H](O)CO)C(O)=C1O [Ascorbic acid] | the same with that from physiological saline and +
O=C(O)CO [Glycolic acid] | the same with that from physiological saline and +
O=C(O)CC(O)C(=O)O (stereo not drawn) [Malic acid] | ++++
O=C(O)C(=O)O [Oxalic acid] | ++++

Same assay, conditions: in vivo

SMILES | Irritability
O=C(O)c1ccccc1C(=O)O [Phthalic acid] | +++
O=C(O)C(O)C(O)C(=O)O (stereo not drawn) [Tartaric acid] | ++++

From US7087248B2, “Pharmaceutical component based on human parathyroid hormone and a pharmaceutical composition for intranasal administration comprising the component” (Daiichi Asubio Pharma Co., Ltd., priority 2000, dated 2006)
